The results in this text go back to ChEMBL document CHEMBL3046565, “Fungicidal and herbicidal activities of berberine related alkaloids” (2000).

In general, inhibition refers to the relative decrease from the control value, in per cent.

Common to all, as to type: functional
The subject of one experiment is Lemna minor. In words: Herbicidal activity against Lemna minor (common duckweed) at 1 ppm after 9 days relative to control.
In experiment [1] the test system is Agrostis stolonifera var. palustris. Kind of experiment: Herbicidal activity against Agrostis stolonifera var. palustris at 1 ppm after 9 days relative to control.
The next experiment concerns Ustilago maydis. In words: Antifungal activity against Ustilago maydis on rice plant at 25 ppm after 24 hr. The settings on record: Mycosarcoma maydis.
Another experiment concerns Phytophthora infestans. In words: microbe, parasite or virus in culture. Conditions: in Oryza sativa, 24 h.
The subject of another experiment is Pyricularia oryzae. Kind of experiment: microbe, parasite or virus in culture. Conditions: 24 h.
Another experiment deals with Rhizoctonia solani. In words: Antifungal activity against Rhizoctonia solani on rice plant at 25 ppm after 24 hr.
A further experiment deals with Zymoseptoria tritici. In words: Antifungal activity against Zymoseptoria tritici on wheat plant at 25 ppm after 24 hr.
Experiment [2] relates to Parastagonospora nodorum. Kind of experiment: Antifungal activity against Phaeosphaeria nodorum on wheat plant at 25 ppm after 24 hr.
The subject of a further experiment is Puccinia recondita. In words: Antifungal activity against Puccinia recondita on wheat plant assessed as disease control at 100 ppm after 24 hr.
In experiment [3] the test system is Parastagonospora nodorum. Kind of experiment: Antifungal activity against Phaeosphaeria nodorum on wheat plant assessed as disease control at 100 ppm after 24 hr.
The test system of experiment [4] is Blumeria graminis f. sp. tritici. In words: Antifungal activity against Blumeria graminis f. sp. tritici on wheat plant assessed as disease control at 100 ppm after 24 hr.

As to `COc1ccc2c(c1OC)C[N+]1(C)CCc3cc4c(cc3C1=C2C)OCO4.[Cl-]` (configuration not stated), the Activity (in the experiment on Lemna minor; in [1]; in the experiment on Puccinia recondita; in the experiment with Parastagonospora nodorum [3]; in experiment [4]) was 0% throughout. Further, the inhibition at 25 ppm in the experiment with Ustilago maydis came to 40%; in the experiment on Phytophthora infestans, 0%; with Pyricularia oryzae it was 0%; in the experiment with Rhizoctonia solani, 0%; in the experiment with Zymoseptoria tritici it was 0%; with Parastagonospora nodorum [2] it was 0%.
On to `COc1ccc2c(c1OC)CN1CCc3cc4c(cc3[C@@H]1[C@@H]2C)OCO4.Cl`, for which the Activity (with Lemna minor; in experiment [1]; with Puccinia recondita; in the experiment with Parastagonospora nodorum [3]; in experiment [4]) was 0% each time. For the same compound, the inhibition at 25 ppm in the experiment on Ustilago maydis, in the experiment with Phytophthora infestans, in the experiment with Pyricularia oryzae, in the experiment with Rhizoctonia solani, in the experiment with Zymoseptoria tritici and in the experiment on Parastagonospora nodorum [2] was 0% each time.
As for `COc1ccc2c(c1OC)CN1CCc3cc4c(cc3[C@@H]1[C@H]2O)OCO4.Cl`, the Activity (in the experiment on Lemna minor; in experiment [1]; in the experiment with Puccinia recondita; with Parastagonospora nodorum [3]; in experiment [4]) was 0% each time. Further, the inhibition at 25 ppm in the experiment with Ustilago maydis, in the experiment on Phytophthora infestans, in the experiment with Pyricularia oryzae, in the experiment with Rhizoctonia solani, in the experiment on Zymoseptoria tritici and in the experiment with Parastagonospora nodorum [2] was 0% throughout.
Take `COc1ccc2c(c1OC)C[N@@+]1(C)CCc3cc4c(cc3[C@@H]1[C@@H]2C)OCO4.[Cl-]`: the Activity (in the experiment on Lemna minor; in experiment [1]; in the experiment with Puccinia recondita; in the experiment on Parastagonospora nodorum [3]; in experiment [4]) was 0% each time. For the same compound, the inhibition at 25 ppm with Ustilago maydis, with Phytophthora infestans, in the experiment with Pyricularia oryzae, with Rhizoctonia solani, in the experiment on Zymoseptoria tritici and in the experiment with Parastagonospora nodorum [2] was 0% throughout.
For the compound `COc1ccc2c(c1OC)C[N@+]1(C)CCc3cc4c(cc3[C@@H]1[C@H]2O)OCO4.[Cl-]`, the Activity (with Lemna minor; in experiment [1]; with Puccinia recondita; in the experiment with Parastagonospora nodorum [3]; in experiment [4]) was 0% in each case. Moreover, the inhibition at 25 ppm in the experiment with Ustilago maydis, with Phytophthora infestans, in the experiment with Pyricularia oryzae, in the experiment on Rhizoctonia solani, with Zymoseptoria tritici and in the experiment with Parastagonospora nodorum [2] was 0% throughout.
Turning to `COc1ccc2c(c1OC)C[N@@+]1(C)CCc3cc4c(cc3[C@@H]1[C@H]2O)OCO4.[Cl-]`, the Activity (in the experiment with Lemna minor; in experiment [1]; with Puccinia recondita; in the experiment on Parastagonospora nodorum [3]; in experiment [4]) was 0% in each case. Also, the inhibition at 25 ppm in the experiment with Ustilago maydis, in the experiment on Phytophthora infestans, in the experiment on Pyricularia oryzae, in the experiment with Rhizoctonia solani, with Zymoseptoria tritici and with Parastagonospora nodorum [2] was 0% in each case.
As for `CCCCc1c2[n+](cc3c(OC)c(OC)ccc13)CCc1cc(OC)c(OC)cc1-2.[Cl-]`, the Activity in the experiment with Lemna minor turned out to be 65%; in experiment [1] it was 0%; in the experiment on Puccinia recondita, 0%; in the experiment with Parastagonospora nodorum [3] it was 73%; in [4] it was 0%. Also, the inhibition at 25 ppm with Ustilago maydis turned out to be 0%; in the experiment on Phytophthora infestans, 0%; in the experiment on Pyricularia oryzae, 0%; in the experiment with Rhizoctonia solani, 0%; in the experiment on Zymoseptoria tritici, 90%; in the experiment on Parastagonospora nodorum [2], 0%.
